In PubChem BioAssay (NCI) one finds TGI data, which are given here for 14 compounds.

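Each compound was tested at five concentrations against cells in 96-well plates for 48 hours. Definition used: TGI = concentration required for complete inhibition of growth.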

Among the test systems are HCC-2998 colon; HCT-15 colon; HL-60(TB) leukemia; HOP-92 NSCLC; HT29 colon; LOX IMVI melanoma; OVCAR-3 ovarian; OVCAR-8 ovarian; RPMI-8226 leukemia; RXF 393 renal; SF-295 CNS; SK-MEL-2 melanoma; SK-MEL-28 melanoma; SK-OV-3 ovarian; SW-620 colon; TK-10 renal.
Common to all, as to assay: inhibition of tumour cell growth, NCI panel, 48 h

Turning to `O=C1[C@@H]2C(c3ccccc3[N+](=O)[O-])=[N+](c3ccccc3)O[C@@H]2C(=O)N1c1ccc(Cc2ccc(N3C(=O)[C@H]4C(c5ccccc5[N+](=O)[O-])=[N+](c5ccccc5)O[C@H]4C3=O)cc2)cc1`, the TGI in the test with HCC-2998 colon, in the test on HCT-15 colon, in the test with HL-60(TB) leukemia, with HOP-92 NSCLC, in the test on HT29 colon and in the test on LOX IMVI melanoma was more than 100 µM throughout. The TGI in the test with OVCAR-3 ovarian, in the test on OVCAR-8 ovarian, in the test on RPMI-8226 leukemia, with RXF 393 renal, in the test with SF-295 CNS and with SK-MEL-2 melanoma was more than 100 µM throughout. In addition, the TGI in the test on SK-MEL-28 melanoma, in the test on SK-OV-3 ovarian, in the test with SW-620 colon and in the test with TK-10 renal was more than 100 µM each time.
Regarding `C(=N\Nc1ccccc1)/c1nc2ccccc2nc1/C=N/Nc1ccccc1`, the TGI was 25.3 µM in the test with HCC-2998 colon; 25.8 µM with HCT-15 colon; more than 100 µM in the test with HL-60(TB) leukemia; 33.2 µM in the test with HOP-92 NSCLC; 23.5 µM with HT29 colon; 22.1 µM with LOX IMVI melanoma. The TGI was determined as 31.9 µM in the test on OVCAR-3 ovarian; 17 µM in the test on OVCAR-8 ovarian; 30.1 µM in the test with RXF 393 renal; 30.5 µM in the test on SF-295 CNS; 39.3 µM in the test with SK-MEL-2 melanoma; 31.7 µM in the test on SK-MEL-28 melanoma. Also, the TGI with SK-OV-3 ovarian came out at 38.6 µM; in the test on SW-620 colon, 30.7 µM; with TK-10 renal it was 31.6 µM.
`Clc1ccc(CCn2cncn2)cc1`: the TGI in the test on HCT-15 colon, in the test on HL-60(TB) leukemia, with HOP-92 NSCLC, in the test on HT29 colon, with LOX IMVI melanoma and in the test on OVCAR-3 ovarian was more than 100 µM throughout. Besides, the TGI in the test with OVCAR-8 ovarian, with RPMI-8226 leukemia, in the test with RXF 393 renal, in the test on SF-295 CNS, with SK-MEL-2 melanoma and in the test with SK-MEL-28 melanoma was more than 100 µM each time. The TGI in the test with SK-OV-3 ovarian, in the test on SW-620 colon and in the test on TK-10 renal was more than 100 µM throughout.
With `O=C1CC2(CCC3=C(O2)c2ccccc2NC(=O)C3)C(=O)c2ccccc2N1` (centres undefined), the TGI with HCT-15 colon, with HL-60(TB) leukemia, in the test on HT29 colon, in the test with LOX IMVI melanoma, in the test with OVCAR-3 ovarian and in the test on OVCAR-8 ovarian was more than 100 µM each time. Moreover, the TGI with RPMI-8226 leukemia, in the test on RXF 393 renal, with SF-295 CNS, in the test with SK-MEL-2 melanoma, in the test on SK-MEL-28 melanoma and with SW-620 colon was more than 100 µM in each case. For the same compound, in the test with TK-10 renal, the TGI was more than 100 µM.
For the compound `O=c1c2ccccc2nc2n1-c1ccccc1SC2`, the TGI with HCC-2998 colon, in the test on HCT-15 colon, with HOP-92 NSCLC, in the test with HT29 colon, in the test on LOX IMVI melanoma and in the test with OVCAR-3 ovarian was more than 100 µM throughout. The TGI in the test on OVCAR-8 ovarian was more than 100 µM; in the test on RPMI-8226 leukemia, 71.9 µM; in the test on RXF 393 renal, more than 100 µM; with SF-295 CNS, more than 100 µM; in the test with SK-MEL-2 melanoma, more than 100 µM; with SK-MEL-28 melanoma, more than 100 µM. In addition, the TGI with SK-OV-3 ovarian, in the test on SW-620 colon and in the test with TK-10 renal was more than 100 µM throughout.
In the case of `N#CC1=C(c2ccccc2)C(=C2Nc3ccccc3N2)C2S/C(=C\c3ccccc3)C(=O)N2C1=N` (centres undefined), the TGI in the test on HCC-2998 colon was 13.3 µM; with HCT-15 colon it was 10.3 µM; with HL-60(TB) leukemia, 6.53 µM; in the test with HOP-92 NSCLC, 2.67 µM; with HT29 colon, 14.3 µM; in the test with LOX IMVI melanoma it was 3.43 µM. For the same compound, the TGI with OVCAR-3 ovarian was found to be 3.37 µM; in the test on OVCAR-8 ovarian, 5.19 µM; in the test on SF-295 CNS, 6.21 µM; with SK-MEL-2 melanoma it was 4.05 µM; in the test on SK-MEL-28 melanoma, 10.5 µM; with SK-OV-3 ovarian, 3.62 µM. The TGI in the test with SW-620 colon amounted to 15.8 µM; in the test with TK-10 renal, 4.78 µM.
Regarding `COc1ccc(Cc2c(=O)[nH]nc3ccccc23)cc1`, the TGI with HCC-2998 colon, in the test on HCT-15 colon, with HOP-92 NSCLC, with HT29 colon, with LOX IMVI melanoma and with OVCAR-3 ovarian was more than 100 µM each time. Moreover, the TGI in the test with OVCAR-8 ovarian, in the test with RPMI-8226 leukemia, with SF-295 CNS, with SK-MEL-2 melanoma, in the test on SK-MEL-28 melanoma and with SK-OV-3 ovarian was more than 100 µM each time. Moreover, the TGI with SW-620 colon and in the test on TK-10 renal was more than 100 µM in each case.
For `C/C(CC(=O)Nc1cc(C)ccc1C)=N/N=C(N)N`, the TGI in the test on HCC-2998 colon, with HL-60(TB) leukemia, in the test on HOP-92 NSCLC, in the test on HT29 colon, in the test on LOX IMVI melanoma and in the test on OVCAR-3 ovarian was more than 100 µM in each case. For the same compound, the TGI in the test with OVCAR-8 ovarian, with RPMI-8226 leukemia, in the test with RXF 393 renal, in the test on SF-295 CNS, in the test on SK-MEL-2 melanoma and in the test on SK-MEL-28 melanoma was more than 100 µM in each case. The TGI in the test on SK-OV-3 ovarian, with SW-620 colon and in the test on TK-10 renal was more than 100 µM each time.
Regarding `CCOC(=O)Cc1csc(Nc2ccc(OCC)cc2)n1`, the TGI with HCC-2998 colon, in the test with HCT-15 colon, in the test with HL-60(TB) leukemia, in the test with HOP-92 NSCLC, with HT29 colon and with OVCAR-3 ovarian was more than 100 µM in each case. Further, the TGI with OVCAR-8 ovarian, with RPMI-8226 leukemia, in the test with RXF 393 renal, in the test with SF-295 CNS, in the test on SK-MEL-2 melanoma and in the test with SK-MEL-28 melanoma was more than 100 µM in each case. Also, the TGI in the test on SW-620 colon and in the test on TK-10 renal was more than 100 µM throughout.
As to `COc1cc(O)c2c(c1)O[C@@H]1OCC[C@H]21`, the TGI with HCC-2998 colon, in the test on HCT-15 colon, in the test on HL-60(TB) leukemia, in the test with HOP-92 NSCLC, with HT29 colon and in the test on LOX IMVI melanoma was more than 100 µM in each case. Besides, the TGI in the test on OVCAR-3 ovarian, in the test with OVCAR-8 ovarian, in the test on RPMI-8226 leukemia, with SF-295 CNS, in the test with SK-MEL-2 melanoma and in the test with SK-MEL-28 melanoma was more than 100 µM throughout. In addition, the TGI with SK-OV-3 ovarian, in the test on SW-620 colon and in the test with TK-10 renal was more than 100 µM in each case.
In the case of `O=C(c1ccccc1)C(c1ccccc1)C1(O)C(=O)Nc2ccc([N+](=O)[O-])cc21` (centres undefined), the TGI in the test with HCC-2998 colon, with HCT-15 colon, with HL-60(TB) leukemia, in the test on HOP-92 NSCLC, with LOX IMVI melanoma and with OVCAR-8 ovarian was more than 100 µM throughout. Besides, the TGI in the test on RPMI-8226 leukemia was more than 100 µM; with RXF 393 renal, more than 100 µM; with SK-MEL-2 melanoma it was more than 100 µM; in the test with SK-MEL-28 melanoma, more than 100 µM; in the test on SK-OV-3 ovarian, 79.7 µM; in the test with SW-620 colon, more than 100 µM. This compound yielded a TGI with TK-10 renal of more than 100 µM.
For the compound `O=[N+]([O-])c1cc([N+](=O)[O-])c(/C=C/c2ccc(Cl)c(Cl)c2)cc1/C=C/c1ccc(Cl)c(Cl)c1`, the TGI is more than 100 µM with HCC-2998 colon; 58.9 µM with HCT-15 colon; 49.2 µM in the test with HL-60(TB) leukemia; 63.7 µM in the test with HT29 colon; 61.6 µM in the test on LOX IMVI melanoma; 59.8 µM with OVCAR-3 ovarian. Besides, the TGI with OVCAR-8 ovarian was more than 100 µM; in the test on RPMI-8226 leukemia, 50.3 µM; in the test with RXF 393 renal, 37 µM; in the test with SF-295 CNS it was 81 µM; in the test with SK-MEL-2 melanoma, 56.4 µM; in the test on SK-MEL-28 melanoma it was 59.2 µM. Also, the TGI with SK-OV-3 ovarian is more than 100 µM; in the test with SW-620 colon it was 88.6 µM; with TK-10 renal, more than 100 µM.
For the compound `O=C(O)COc1ccc(C(=O)/C(SS/C(C(=O)c2ccc(OCC(=O)O)c(Cl)c2Cl)=C2\C=C(c3ccc(Cl)cc3)SS2)=C2/C=C(c3ccc(Cl)cc3)SS2)c(Cl)c1Cl`, the TGI is 25.3 µM in the test on HCC-2998 colon; 18.1 µM in the test with HCT-15 colon; 2.1 µM in the test with HL-60(TB) leukemia; 17.9 µM with HOP-92 NSCLC; more than 100 µM in the test with HT29 colon; 15.3 µM in the test on LOX IMVI melanoma. The TGI in the test on OVCAR-3 ovarian is 26.6 µM; in the test on OVCAR-8 ovarian, more than 100 µM; with RPMI-8226 leukemia it was 43.3 µM; in the test on SF-295 CNS, 82.5 µM; in the test on SK-MEL-2 melanoma, 33.7 µM; in the test with SK-MEL-28 melanoma, 56.7 µM. The TGI was more than 100 µM in the test on SK-OV-3 ovarian, 11.5 µM in the test with SW-620 colon and more than 100 µM in the test with TK-10 renal.
Consider `Cc1nc(N2N=C(c3ccc(Cl)cc3)CCC2=O)sc1[N+](=O)[O-]`, for which the TGI in the test on HCC-2998 colon, in the test on HCT-15 colon, in the test with HL-60(TB) leukemia, with HT29 colon, with LOX IMVI melanoma and with OVCAR-3 ovarian was more than 100 µM in each case. Further, the TGI in the test with OVCAR-8 ovarian, in the test with RPMI-8226 leukemia, in the test with RXF 393 renal, with SF-295 CNS, in the test with SK-MEL-2 melanoma and in the test with SK-MEL-28 melanoma was more than 100 µM in each case. The TGI in the test on SK-OV-3 ovarian, with SW-620 colon and in the test on TK-10 renal was more than 100 µM in each case.
